Experimental data: US20260327211A1, “MODULATORS OF A POTASSIUM CHANNEL AND OF TRPV1 CHANNEL AND USES THEREOF” (Bsense Bio Therapeutics Ltd., priority 2023, published 2026)
pIC50: −log10 of the molar value. “Also recorded” adds a separate entry of the source.

Experiments:
[1] = target: T1, nAChR(a4/b2) (Homo sapiens, UniProt P17787+P43681); assay: Functional selectivity panel, nAChR(a4/b2); format: biochemical; settings: up to 10 micromolar
T1 construct: Eurofins DiscoverX functional panel cells
T1 sequence (P43681 27-627): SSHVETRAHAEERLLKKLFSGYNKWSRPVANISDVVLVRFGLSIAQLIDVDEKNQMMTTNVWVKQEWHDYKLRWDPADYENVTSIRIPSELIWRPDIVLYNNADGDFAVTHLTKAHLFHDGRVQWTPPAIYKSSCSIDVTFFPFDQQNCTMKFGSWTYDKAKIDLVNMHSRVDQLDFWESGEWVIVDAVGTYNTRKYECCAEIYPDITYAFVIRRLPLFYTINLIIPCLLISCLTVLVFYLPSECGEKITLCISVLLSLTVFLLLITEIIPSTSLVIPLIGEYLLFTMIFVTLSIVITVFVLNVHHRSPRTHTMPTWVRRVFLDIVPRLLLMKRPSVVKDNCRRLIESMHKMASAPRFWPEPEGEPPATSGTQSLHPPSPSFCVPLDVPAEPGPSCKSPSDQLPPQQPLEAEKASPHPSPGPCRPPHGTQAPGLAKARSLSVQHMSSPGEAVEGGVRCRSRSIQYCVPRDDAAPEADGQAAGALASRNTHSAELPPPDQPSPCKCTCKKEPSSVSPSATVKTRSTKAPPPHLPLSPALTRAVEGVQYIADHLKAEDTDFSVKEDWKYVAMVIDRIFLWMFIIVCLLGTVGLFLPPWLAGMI
T1 sequence (P17787 26-502): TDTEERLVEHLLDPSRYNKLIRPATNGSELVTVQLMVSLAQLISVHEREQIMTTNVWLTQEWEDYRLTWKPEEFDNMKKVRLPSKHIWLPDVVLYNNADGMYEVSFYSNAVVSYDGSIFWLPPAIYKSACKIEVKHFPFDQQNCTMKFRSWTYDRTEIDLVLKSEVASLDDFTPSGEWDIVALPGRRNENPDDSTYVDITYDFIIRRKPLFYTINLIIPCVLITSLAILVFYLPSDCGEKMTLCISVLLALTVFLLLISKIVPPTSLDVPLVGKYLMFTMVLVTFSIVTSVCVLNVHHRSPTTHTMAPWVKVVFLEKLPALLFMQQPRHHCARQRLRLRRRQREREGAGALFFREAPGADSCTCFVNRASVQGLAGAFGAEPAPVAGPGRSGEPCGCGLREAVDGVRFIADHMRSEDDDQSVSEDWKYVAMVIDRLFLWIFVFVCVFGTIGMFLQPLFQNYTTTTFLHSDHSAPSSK
Description: (§1) A broad panel of 78 recombinant targets was tested for pharmacologic activity in vitro through a variety of functional assays (Eurofins DiscoverX, USA), as part of the National Institute of Neurological Disorders and Stroke (NINDS) Preclinical Screening Platform for Pain (PSPP) program. The biological targets for the in vitro profiling have been selected based on avoiding opioid receptor stimulation and targets known to be associated with adverse events or targeted by drugs of abuse. […] For each test, a reference compound was evaluated at the target of interest as a positive control.

[2] = system: Dopamine D1-D5; assay: Functional screening panel, Dopamine D1-D5; format: biochemical; settings: up to 10 micromolar
Description: as §1

[3] = target: OATP1B1 (Homo sapiens, UniProt Q9Y6L6); assay: Transporter substrate, OATP1B1; format: in vitro ADME; settings: role: substrate
Chain of OATP1B1 (Q9Y6L6 whole entry): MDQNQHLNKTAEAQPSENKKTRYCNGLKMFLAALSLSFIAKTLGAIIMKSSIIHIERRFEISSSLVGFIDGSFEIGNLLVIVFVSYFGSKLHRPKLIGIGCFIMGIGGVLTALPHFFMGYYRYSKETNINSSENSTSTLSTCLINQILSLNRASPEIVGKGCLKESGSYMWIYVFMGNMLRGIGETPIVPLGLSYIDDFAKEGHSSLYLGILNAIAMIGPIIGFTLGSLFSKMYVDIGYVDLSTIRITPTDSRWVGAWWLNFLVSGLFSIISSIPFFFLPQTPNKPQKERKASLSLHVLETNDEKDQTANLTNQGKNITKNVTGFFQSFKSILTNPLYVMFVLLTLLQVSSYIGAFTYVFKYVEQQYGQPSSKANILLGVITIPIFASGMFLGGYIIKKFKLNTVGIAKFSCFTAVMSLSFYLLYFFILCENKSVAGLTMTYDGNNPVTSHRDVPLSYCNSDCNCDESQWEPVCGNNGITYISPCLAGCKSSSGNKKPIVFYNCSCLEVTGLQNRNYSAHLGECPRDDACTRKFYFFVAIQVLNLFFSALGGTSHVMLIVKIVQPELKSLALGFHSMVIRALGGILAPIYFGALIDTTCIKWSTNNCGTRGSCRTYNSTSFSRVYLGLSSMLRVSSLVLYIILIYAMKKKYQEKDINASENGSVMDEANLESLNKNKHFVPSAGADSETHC
Description: (§2) Additionally, compound 760 was tested for its capability to act as a transporter substrate for various transporters, and was not found to be a transporter substrate for any of the tested transporters.

[4] = target: OATP2B1 (Homo sapiens, UniProt O94956); assay: Transporter substrate, OATP2B1; format: in vitro ADME; settings: role: substrate
Chain of OATP2B1 (O94956 whole entry): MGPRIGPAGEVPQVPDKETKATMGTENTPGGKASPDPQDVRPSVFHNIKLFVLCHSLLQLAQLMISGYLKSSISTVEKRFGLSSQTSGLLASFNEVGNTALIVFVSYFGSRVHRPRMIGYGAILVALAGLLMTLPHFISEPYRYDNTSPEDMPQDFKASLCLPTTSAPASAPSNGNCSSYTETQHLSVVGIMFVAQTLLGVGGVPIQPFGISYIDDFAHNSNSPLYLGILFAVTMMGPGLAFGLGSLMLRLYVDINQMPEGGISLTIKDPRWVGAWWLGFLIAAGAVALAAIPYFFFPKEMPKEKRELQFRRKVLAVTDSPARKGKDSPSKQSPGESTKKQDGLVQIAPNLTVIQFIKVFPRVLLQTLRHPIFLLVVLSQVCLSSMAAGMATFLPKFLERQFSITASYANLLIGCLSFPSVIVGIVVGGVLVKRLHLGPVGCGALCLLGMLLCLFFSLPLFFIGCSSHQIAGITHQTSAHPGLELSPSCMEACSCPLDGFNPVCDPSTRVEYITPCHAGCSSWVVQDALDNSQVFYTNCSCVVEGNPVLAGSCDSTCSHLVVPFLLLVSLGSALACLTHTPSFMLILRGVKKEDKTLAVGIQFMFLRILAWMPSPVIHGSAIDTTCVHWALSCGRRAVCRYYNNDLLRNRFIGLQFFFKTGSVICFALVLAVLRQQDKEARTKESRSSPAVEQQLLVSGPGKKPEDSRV
Description: as §2

[5] = target: OCT2 (Homo sapiens, UniProt O15244); assay: Transporter substrate, OCT2; format: in vitro ADME; settings: role: substrate
Chain of OCT2 (O15244 whole entry): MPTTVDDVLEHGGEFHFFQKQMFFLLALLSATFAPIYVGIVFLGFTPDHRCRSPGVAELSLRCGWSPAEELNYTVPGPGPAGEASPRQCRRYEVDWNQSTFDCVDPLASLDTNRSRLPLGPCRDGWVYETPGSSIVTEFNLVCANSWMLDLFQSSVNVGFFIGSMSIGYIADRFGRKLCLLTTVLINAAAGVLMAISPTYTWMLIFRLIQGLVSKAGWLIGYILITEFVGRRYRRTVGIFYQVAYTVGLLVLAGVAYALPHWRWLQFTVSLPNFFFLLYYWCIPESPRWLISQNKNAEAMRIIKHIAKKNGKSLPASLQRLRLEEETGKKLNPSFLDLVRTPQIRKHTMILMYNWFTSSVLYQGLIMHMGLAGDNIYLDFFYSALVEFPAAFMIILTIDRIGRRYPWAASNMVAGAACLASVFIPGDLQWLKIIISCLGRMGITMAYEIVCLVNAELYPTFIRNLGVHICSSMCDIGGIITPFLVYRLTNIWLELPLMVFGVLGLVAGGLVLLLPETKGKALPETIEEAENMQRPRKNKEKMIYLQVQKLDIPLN
Description: as §2

[6] = target: T2, hTRPV1 (Homo sapiens, UniProt Q8NER1); assay: TRPV1 whole-cell electrophysiology, CHO cells expressing hTRPV1 alone; format: cell-based
T2 construct: CDS of NM_080704.4, inserted into the multiple cloning site of pcDNA3.1(+); host or cells: CHO/hKv7.2/3
T2 sequence (Q8NER1 whole entry): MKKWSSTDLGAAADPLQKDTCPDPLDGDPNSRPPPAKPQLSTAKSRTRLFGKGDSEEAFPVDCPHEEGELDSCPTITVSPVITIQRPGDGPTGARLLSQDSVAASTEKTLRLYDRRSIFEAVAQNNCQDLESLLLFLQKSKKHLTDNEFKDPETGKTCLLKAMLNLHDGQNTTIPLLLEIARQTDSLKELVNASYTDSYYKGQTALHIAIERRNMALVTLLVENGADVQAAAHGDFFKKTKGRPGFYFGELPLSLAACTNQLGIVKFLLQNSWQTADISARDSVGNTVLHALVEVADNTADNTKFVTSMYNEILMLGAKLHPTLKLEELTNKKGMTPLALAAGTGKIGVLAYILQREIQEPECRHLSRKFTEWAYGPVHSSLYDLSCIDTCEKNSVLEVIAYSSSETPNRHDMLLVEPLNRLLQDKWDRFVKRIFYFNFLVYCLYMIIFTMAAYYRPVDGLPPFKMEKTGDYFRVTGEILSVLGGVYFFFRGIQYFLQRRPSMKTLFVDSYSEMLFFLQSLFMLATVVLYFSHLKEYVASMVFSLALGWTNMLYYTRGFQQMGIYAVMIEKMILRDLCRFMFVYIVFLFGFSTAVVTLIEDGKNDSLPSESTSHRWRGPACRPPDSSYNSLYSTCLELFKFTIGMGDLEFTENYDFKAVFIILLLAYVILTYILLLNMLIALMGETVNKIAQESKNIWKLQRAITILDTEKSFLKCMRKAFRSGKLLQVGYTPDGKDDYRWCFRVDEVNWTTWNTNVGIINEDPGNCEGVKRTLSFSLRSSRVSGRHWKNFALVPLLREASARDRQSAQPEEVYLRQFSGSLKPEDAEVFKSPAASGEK
Excerpt: Extracellular (Bath) solution: The solution was composed of (in mM): NaCl, 140; KCl, 4; CaCl2, 1.8; MgCl2, 1.2; Glucose, 11; HEPES, 5.5. pH was adjusted to 7.3 with NaOH. Osmolarity was adjusted to 310 mOsm with Sucrose.
Intracellular (Pipette) solution: Pipettes were pulled from borosilicate glass (Warner Instrument Corp, USA) with a resistance of 3-7 MΩ and filled with internal solution composed of (in mM): KCl, 130; MgCl2, 1; K ATP, 5; EGTA, 5; HEPES, 10. pH was adjusted to 7.3 with KOH. Osmolarity was adjusted to 290 mOsm with Sucrose. A programmable valve-linked pressurized perfusion system was used to locally apply compounds nearby the cell recorded, in a consistent flow rate of 2-3 ml/min. Data were sampled at 5 kHz and low pass filtered at 2.4 kHz using MultiClamp 700B amplifier with pCLAMP11 software (Molecular Devices, USA).
[…]. A 3-minute time interval was set between sequential Capsaicin injections to allow its washout and cell recovery. All compounds are injected in the vicinity of the cells using the pressurized perfusion system.
The drug current response, when capsaicin (co-applied with test compound) is injected following >3 minutes of pre-incubation with the test compound, is divided by the averaged control currents, obtained when capsaicin is injection alone, before compound incubation and following its washout, to evaluate the drug/control response.

[7] = target: T2, hTRPV1; assay: hTRPV1 dual activity electrophysiology, CHO cells co-expressing hKv7.2/3 and hTRPV1; format: cell-based; settings: 100 nM
[8] = system: Distal Tibial Injury (DTI) rats; assay: Distal Tibial Injury (DTI) model, von Frey; format: in vivo, rat; settings: 100 mg/kg oral, 6 hours post-dose
Description: (§3) All animal experiments were carried out according to the Guide for the Care and Use of Laboratory Animals (2011 edition) and approved by the Israel National Institutional Animal Care and Use Committee (IACUC). Young adult male SD rats (Envigo RMS, Israel), were used for in vivo efficacy: Spared Nerve Injury (SNI), Distal Tibial Injury (DTI) and Post-operative Pain (POP), 200-220 grams, Chronic Post-Ischemia Pain (CPIP) 275-325 grams, Monosodium iodoacetate-induced osteoarthritis (MIA-OA) 180-220 grams; for in vivo safety: 200-250 grams at study initiation. […] The health status of the animals used in this study was examined upon their arrival. Only animals in good health were acclimatized to laboratory conditions and were used in the studies. All studies were performed following at least five days of animal acclimation. During acclimation and throughout the entire study duration, animals were housed within a limited-access rodent facility and kept in groups with a maximum of 2-3 rats per polypropylene cage. The cages were fitted with solid bottoms and filled with sterile wood shavings as bedding material. Animals were provided ad libitum with a commercial, sterile rodent diet and had free access to drinking water that was supplied to each cage via polyethylene bottles with stainless steel sipper tubes. […] Water was monitored periodically. […]

[9] = system: Post-operative Pain (POP) rats; assay: Post-operative Pain model, mechanical PWT; format: in vivo, rat; settings: 100 mg/kg, 6 hours post-dose
Description: as §3, with “material.” for “material. Animals were provided ad libitum with a commercial, sterile rodent diet and had free access to drinking water that was supplied to each cage via polyethylene bottles with stainless steel sipper tubes.”
Post-operative Pain (POP): For this model, animals were anesthetized by medetomidine/ketamine sodium IP. […] On the following day, animal responses to von Frey (VF) filaments and hot-plate testing were recorded. […]

O=C(Cc1nccc(-n2cc(Cl)c3cc(Cl)cc(Cl)c32)n1)NC1COCC1O (stereo not shown) [Compound 760]
Effect on nAChR(a4/b2) [1]: no effect
Effect on Dopamine D1-D5 [2]: no effect
OATP1B1 substrate [3]: not a transporter substrate
OATP2B1 substrate [4]: not a transporter substrate
OCT2 substrate [5]: not a transporter substrate

O=C(Cc1cc(-n2cc(Cl)c3cc(Cl)cc(Cl)c32)ccc1F)NCCO [Compound 627]
pIC50 [6]: 5.70
TRPV1 inhibition, hTRPV1 alone ([6]; 1.3 μM): partial TRPV1 inhibition
hTRPV1 inhibition without hKv7.2/3 activation [7]: lack of hTRPV1 inhibition-potency gain; also recorded: TRPV1 could not be inhibited even at 100 nM

O=C(Cc1cncc(-n2cc(Cl)c3cc(Cl)cc(Cl)c32)c1)N[C@@H]1COC[C@H]1O [Compound 661]
Reversal of mechanical PWT [8]: 45.9%
Mechanical PWT [9]: did not affect the mechanical PWT
